Assay results from patent US8883841B2, “Oncogenic ras-specific cytotoxic compound and methods of use thereof” (The Board of Regents of the University of Texas System, priority 2005, dated 2014).
Like-named read-outs stand apart in the source and are kept apart here.

Key:
H322 cells = assay: Cell viability, H322 lung cancer cells; type: cell-based, human; details: Homo sapiens, NCI-H322; H322, Lung; read-out: IC50 (−LogM) (converted)
H23 = assay: Cell viability, H23 lung cancer cells; type: cell-based, human; details: Homo sapiens, NCI-H23; H23, Lung; read-out: IC50 (−LogM) (converted)
H2087 = assay: Cell viability, H2087 lung cancer cells; type: cell-based, human; details: Homo sapiens, NCI-H2087; H2087, Lung; read-out: IC50 (−LogM) (converted)
SR = assay: NCI in-vitro testing, SR (Leukemia); type: cell-based; details: for GI50: Homo sapiens
H460 cells = assay: cells; details: Homo sapiens
M14 = assay: NCI in-vitro testing, M14 (Melanoma)
HT29 = assay: NCI in-vitro testing, HT29 (Colon Cancer)
SF-539 = assay: NCI in-vitro testing, SF-539 (CNS Cancer)
LOX IMVI = assay: NCI in-vitro testing, LOX IMVI (Melanoma)
MALME-3M = assay: NCI in-vitro testing, MALME-3M (Melanoma)
SK-MEL-2 = assay: NCI in-vitro testing, SK-MEL-2 (Melanoma)
SK-MEL-5 = assay: NCI in-vitro testing, SK-MEL-5 (Melanoma)
COLO 205 = assay: NCI in-vitro testing, COLO 205 (Colon Cancer)
HS 578T = assay: NCI in-vitro testing, HS 578T (Breast Cancer)
NCI-H226 = assay: NCI in-vitro testing, NCI-H226 (Non-Small Cell Lung Cancer)
NCI-H460 = assay: NCI in-vitro testing, NCI-H460 (Non-Small Cell Lung Cancer)

Structure (SMILES): OCc1cn(Cc2ccc(Cl)cc2)c2ccccc12 [Oncrasin K060, 1H-Indole-3-methanol, 1-[(4-chlorophenyl)methyl]-]
- IC50 (H322 cells): 31.6 µM
- IC50 (H23): 15.8 µM
- IC50 (H2087): 25.1 µM
- TGI (SR): 1.26E−8 Molar
- GI50 (SR; Leukemia, NCI Mean Graphs, read-out: Log10 GI50 (converted)): < 0.01 µM
- GI50 (SR; read-out: GI50): < 1 µM
- Percent Growth (SR; Log10 Concentration −4.0 Molar): −71%
- Percent Growth (SR; Log10 Concentration −5.0 Molar): −18%
- Percent Growth (SR; Log10 Concentration −6.0 Molar): −71%
- Percent Growth (SR; Log10 Concentration −7.0 Molar): −26%
- Percent Growth (SR; Log10 Concentration −8.0 Molar): 43%
- IC50 (H460 cells; NCI-H460, read-out: IC50 (−LogM), H460, Lung (converted)): 0.0158 µM
- IC50 (H460 cells; NCI-H460, read-out: IC50 in H460 cells, Table 1): 0.0158 µM
- GI50 (M14; Homo sapiens, M14): 6.16 µM
- CC50 (M14; Homo sapiens, M14, read-out: LC50): 55.9 µM
- GI50 (M14; Homo sapiens, M14, read-out: Log10 GI50 (converted)): 5.13 µM
- TGI (M14; M14): 2.03E−5 Molar
- Percent Growth (M14; M14, Log10 Concentration −4.0 Molar): −79%
- Percent Growth (M14; M14, Log10 Concentration −5.0 Molar): 35%
- Percent Growth (M14; M14, Log10 Concentration −6.0 Molar): 87%
- Percent Growth (M14; M14, Log10 Concentration −7.0 Molar): 94%
- Percent Growth (M14; M14, Log10 Concentration −8.0 Molar): 95%
- TGI (HT29; HT20): 2.01E−6 Molar
- Percent Growth (HT29; HT20, Log10 Concentration −4.0 (Molar)): −66%
- Percent Growth (HT29; HT20, Log10 Concentration −5.0 (Molar)): 29%
- Percent Growth (HT29; HT20, Log10 Concentration −6.0 (Molar)): 68%
- Percent Growth (HT29; HT20, Log10 Concentration −7.0 (Molar)): 79%
- Percent Growth (HT29; HT20, Log10 Concentration −8.0 (Molar)): 103%
- GI50 (HT29; Homo sapiens): 1.83 µM
- GI50 (HT29; Homo sapiens, HT-29, read-out: Log10 GI50 (converted)): 1.82 µM
- CC50 (HT29; Homo sapiens, read-out: LC50): 67.6 µM
- GI50 (SF-539; Homo sapiens, SF-539): 10.9 µM
- CC50 (SF-539; Homo sapiens, SF-539, read-out: LC50): 60 µM
- GI50 (SF-539; Homo sapiens, SF-539, read-out: Log10 GI50 (converted)): 11 µM
- TGI (SF-539; SF-539): 2.70E−5 Molar
- Percent Growth (SF-539; SF-539, Log10 Concentration −4.0 Molar): −73%
- Percent Growth (SF-539; SF-539, Log10 Concentration −5.0 Molar): 55%
- Percent Growth (SF-539; SF-539, Log10 Concentration −6.0 Molar): 104%
- Percent Growth (SF-539; SF-539, Log10 Concentration −7.0 Molar): 110%
- Percent Growth (SF-539; SF-539, Log10 Concentration −8.0 Molar): 108%
- TGI (LOX IMVI): 1.58E−6 Molar
- GI50 (LOX IMVI; Homo sapiens): 4.48 µM
- CC50 (LOX IMVI; Homo sapiens, read-out: LC50): 47.2 µM
- GI50 (LOX IMVI; Homo sapiens, read-out: Log10 GI50 (converted)): 4.47 µM
- Percent Growth (LOX IMVI; Log10 Concentration −4.0 Molar): −86%
- Percent Growth (LOX IMVI; Log10 Concentration −5.0 Molar): 26%
- Percent Growth (LOX IMVI; Log10 Concentration −6.0 Molar): 96%
- Percent Growth (LOX IMVI; Log10 Concentration −7.0 Molar): 96%
- Percent Growth (LOX IMVI; Log10 Concentration −8.0 Molar): 102%
- GI50 (MALME-3M; Homo sapiens, Malme-3M): 51.7 µM
- CC50 (MALME-3M; Homo sapiens, Malme-3M, read-out: LC50): 82 µM
- GI50 (MALME-3M; Homo sapiens, Malme-3M, read-out: Log10 GI50 (converted)): 5.13 µM
- TGI (MALME-3M; MALME-3M): 2.37E−5 Molar
- Percent Growth (MALME-3M; MALME-3M, Log10 Concentration −4.0 Molar): −58%
- Percent Growth (MALME-3M; MALME-3M, Log10 Concentration −5.0 Molar): 35%
- Percent Growth (MALME-3M; MALME-3M, Log10 Concentration −6.0 Molar): 88%
- Percent Growth (MALME-3M; MALME-3M, Log10 Concentration −7.0 Molar): 114%
- Percent Growth (MALME-3M; MALME-3M, Log10 Concentration −8.0 Molar): 105%
- GI50 (SK-MEL-2; Homo sapiens, SK-MEL-2): 1.58 µM
- CC50 (SK-MEL-2; Homo sapiens, SK-MEL-2, read-out: LC50): 48.2 µM
- GI50 (SK-MEL-2; Homo sapiens, SK-MEL-2, read-out: Log10 GI50 (converted)): 1.58 µM
- TGI (SK-MEL-2; SK-MEL-2): 5.94E−6 Molar
- Percent Growth (SK-MEL-2; SK-MEL-2, Log10 Concentration −4.0 Molar): −64%
- Percent Growth (SK-MEL-2; SK-MEL-2, Log10 Concentration −5.0 Molar): −20%
- Percent Growth (SK-MEL-2; SK-MEL-2, Log10 Concentration −6.0 Molar): 67%
- Percent Growth (SK-MEL-2; SK-MEL-2, Log10 Concentration −7.0 Molar): 84%
- Percent Growth (SK-MEL-2; SK-MEL-2, Log10 Concentration −8.0 Molar): 98%
- GI50 (SK-MEL-5; Homo sapiens, SK-MEL-5): 4.97 µM
- CC50 (SK-MEL-5; Homo sapiens, SK-MEL-5, read-out: LC50): 45.5 µM
- GI50 (SK-MEL-5; Homo sapiens, SK-MEL-5, read-out: Log10 GI50 (converted)): 5.01 µM
- TGI (SK-MEL-5; SK-MEL-5): 1.95E−5 Molar
- Percent Growth (SK-MEL-5; SK-MEL-5, Log10 Concentration −4.0 Molar): −97%
- Percent Growth (SK-MEL-5; SK-MEL-5, Log10 Concentration −5.0 Molar): 40%
- Percent Growth (SK-MEL-5; SK-MEL-5, Log10 Concentration −6.0 Molar): 74%
- Percent Growth (SK-MEL-5; SK-MEL-5, Log10 Concentration −7.0 Molar): 92%
- Percent Growth (SK-MEL-5; SK-MEL-5, Log10 Concentration −8.0 Molar): 95%
- TGI (COLO 205; COLO 205): 1.58E−5 Molar
- Percent Growth (COLO 205; COLO 205, Log10 Concentration −4.0 Molar): −72%
- Percent Growth (COLO 205; COLO 205, Log10 Concentration −5.0 Molar): 18%
- Percent Growth (COLO 205; COLO 205, Log10 Concentration −6.0 Molar): 61%
- Percent Growth (COLO 205; COLO 205, Log10 Concentration −7.0 Molar): 93%
- Percent Growth (COLO 205; COLO 205, Log10 Concentration −8.0 Molar): 98%
- GI50 (COLO 205; Homo sapiens, COLO 205): 1.05 µM
- CC50 (COLO 205; Homo sapiens, COLO 205, read-out: LC50): 56.9 µM
- GI50 (COLO 205; Homo sapiens, COLO 205, read-out: Log10 GI50 (converted)): 1.05 µM
- TGI (HS 578T): 2.75E−5 Molar
- GI50 (HS 578T; Homo sapiens, Hs-578T): 46.8 µM
- CC50 (HS 578T; Homo sapiens, Hs-578T, read-out: LC50): > 100 µM
- GI50 (HS 578T; Homo sapiens, Hs-578T, read-out: Log10 GI50 (converted)): 4.68 µM
- GI50 (NCI-H226; Homo sapiens, NCI-H226): < 0.01 µM
- CC50 (NCI-H226; Homo sapiens, NCI-H226, read-out: LC50): 0.501 µM
- GI50 (NCI-H226; Homo sapiens, NCI-H226, read-out: Log10 GI50 (converted)): < 0.01 µM
- TGI (NCI-H226; NCI-H226): 4.48E−8 Molar
- Percent Growth (NCI-H226; NCI-H226, Log10 Concentration −4.0 Molar): −65%
- Percent Growth (NCI-H226; NCI-H226, Log10 Concentration −5.0 Molar): −68%
- Percent Growth (NCI-H226; NCI-H226, Log10 Concentration −6.0 Molar): −82%
- Percent Growth (NCI-H226; NCI-H226, Log10 Concentration −7.0 Molar): −22%
- Percent Growth (NCI-H226; NCI-H226, Log10 Concentration −8.0 Molar): 40%
- TGI (NCI-H460): 3.79E−5 Molar
- GI50 (NCI-H460; Homo sapiens, NCI-H460): 0.0888 µM
- CC50 (NCI-H460; Homo sapiens, NCI-H460, read-out: LC50): > 100 µM
- GI50 (NCI-H460; Homo sapiens, NCI-H460, read-out: Log10 GI50 (converted)): 0.0891 µM
- Percent Growth (NCI-H460; Log10 Concentration −4.0 Molar): −9%
- Percent Growth (NCI-H460; Log10 Concentration −5.0 Molar): 13%
- Percent Growth (NCI-H460; Log10 Concentration −6.0 Molar): 20%
- Percent Growth (NCI-H460; Log10 Concentration −7.0 Molar): 48%
- Percent Growth (NCI-H460; Log10 Concentration −8.0 Molar): 79%
